Source: patent US20050245399A1, “Pyrazole derivatives as herbicidal compositions containing them” (ISHIHARA SANGYO KAISHA, LTD., priority 2004, published 2005)

Key:
Type in all cases: in vivo
[1] = system: velvetleaf (Abutilon theophrasti): ABUTH; experiment: Test Example 1 pre-emergence herbicidal activity, ABUTH; settings: Rate 63 g a.i./ha, visually observed 20th to 23rd day after application
How it was run: (§1)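 Scoring was visual growth control (0 = untreated, 100 = complete kill) on days 20–23 post-application. Treatment came as a pre-emergence spray one day after sowing in upland soil, using wettable powder or emulsifiable concentrate diluted in 500 L/ha water at predetermined active-ingredient amounts.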

[2] = system: corn (Zea mays L.): ZEAMX; experiment: Test Example 1 pre-emergence herbicidal activity, ZEAMX; settings: Rate 63 g a.i./ha, visually observed 20th to 23rd day after application
How it was run: as §1

[3] = system: prickly sida (Sida spinosa L.), SIDSP; experiment: Test Example 2 post-emergence (foliage treatment) herbicidal activity, SIDSP
How it was run: (§2)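 Foliar spray of formulated compound (500 L/ha dilution water, 0.1% v/v spreader) onto young potted plants at defined leaf stages. Scored 0-100% by visual inspection 20-23 d post-spray.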

[4] = system: rice (Oryza sativa L.), ORYSA; experiment: Test Example 2 post-emergence (foliage treatment) herbicidal activity, ORYSA
How it was run: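 Visual rating of growth control, from 0 (untreated-like) to 100 (complete kill), was done 20–23 days after post-emergence spraying. Wettable powder or emulsifiable concentrate was diluted to 500 L/ha with 0.1% (v/v) spreader. Leaf stages at application were 1.1-2.1 (ECHCG), 1.0-2.0 (DIGSA), 0.1-1.5 (AMARE) and 1.0-2 (ORYSA).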

[5] = system: wheat (Triticum aestivum L.), TRZAX; experiment: Test Example 2 post-emergence (foliage treatment) herbicidal activity, TRZAX
How it was run: as §2

[6] = system: soybean (Glycine max Merr.), GLXMA; experiment: Test Example 2 post-emergence (foliage treatment) herbicidal activity, GLXMA
How it was run: as §2

[7] = system: barnyardgrass (Echinochiloa oryzicola: ECHOR); experiment: Test Example 3 water application herbicidal activity (paddy), ECHOR; settings: 63 g a.i./ha, water application under submerged condition at 0.5 leaf stage, visually observed 14th day after application; 0 = untreated control, 100 = complete kill
How it was run: (§3)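 Flooded paddy-soil pots in greenhouse; ECHOR and SCPJO sown, SAGPY tubers planted a day later, compound applied into 3–4 cm water at weeds' 0.5-leaf stage. Rice transplanted at 2-leaf stage, treated day 4 after transplanting. Visual growth control 0–100% at 14 days (weeds) and 21 days (rice) after application.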

[8] = system: japanese bulrush (Scirpus juncoides: SCPJO); experiment: Test Example 3 water application herbicidal activity (paddy), SCPJO; settings: 63 g a.i./ha, water application under submerged condition at 0.5 leaf stage, visually observed 14th day after application; 0 = untreated control, 100 = complete kill
How it was run: as §3

[9] = system: japanese ribbon wapato (Sagittaria pygmaea: SA GPY); experiment: Test Example 3 water application herbicidal activity (paddy), SAGPY; settings: 63 g a.i./ha, water application under submerged condition, tubers planted, visually observed 14th day after application; 0 = untreated control, 100 = complete kill
How it was run: as §3

[10] = system: rice (Oryza sativa L.: ORYSA); experiment: Test Example 3 water application herbicidal activity (paddy), transplanted rice ORYSA; settings: 63 g a.i./ha, water application 4th day after transplantation of 2 leaf stage rice, visually observed 21st day after application; 0 = untreated control, 100 = complete kill
How it was run: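 Rice at 2-leaf stage is transplanted into flooded puddled soil and treated by water application 4 days later, at a predetermined active-ingredient dose. Crop injury is rated visually as growth control (0–100%) 21 days after treatment.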

COc1c(Cl)cc(F)c(-c2nn(C)c(OC(F)F)c2Cl)c1N(C)C=O [Compound 1-6]
Pre-emergence Herbicidal Activity ABUTH (growth controlling degree) [1]: 50%
Pre-emergence Herbicidal Activity ZEAMX (growth controlling degree) [2]: 30%
growth controlling degree, SIDSP ([3]; 63 g a.i./ha): 100%
growth controlling degree, ORYSA ([4]; 63 g a.i./ha): 40%
growth controlling degree, TRZAX ([5]; 63 g a.i./ha): 30%
growth controlling degree, GLXMA ([6]; 63 g a.i./ha): 90%
growth controlling degrees (%) ECHOR [7]: 90%
growth controlling degrees (%) SCPJO [8]: 60%
growth controlling degrees (%) SAGPY [9]: 30%
growth controlling degrees (%) ORYSA [10]: 50%

COc1c(Cl)cc(F)c(-c2nn(C)c(OC(F)F)c2Cl)c1NC(=O)C=C(C)C [Compound 1-9]
Pre-emergence Herbicidal Activity ABUTH (growth controlling degree) [1]: 100%
Pre-emergence Herbicidal Activity ZEAMX (growth controlling degree) [2]: 70%
growth controlling degree, SIDSP ([3]; 63 g a.i./ha): 100%
growth controlling degree, ORYSA ([4]; 63 g a.i./ha): 80%
growth controlling degree, TRZAX ([5]; 63 g a.i./ha): 40%
growth controlling degree, GLXMA ([6]; 63 g a.i./ha): 90%
growth controlling degrees (%) ECHOR [7]: 100%
growth controlling degrees (%) SCPJO [8]: 100%
growth controlling degrees (%) SAGPY [9]: 100%
growth controlling degrees (%) ORYSA [10]: 30%

COc1c(Cl)cc(F)c(-c2nn(C)c(OC(F)F)c2Cl)c1N(C=O)C1CCCC1 [Compound 1-10]
Pre-emergence Herbicidal Activity ABUTH (growth controlling degree) [1]: 100%
Pre-emergence Herbicidal Activity ZEAMX (growth controlling degree) [2]: 40%
growth controlling degree, SIDSP ([3]; 63 g a.i./ha): 100%
growth controlling degree, ORYSA ([4]; 63 g a.i./ha): 70%
growth controlling degree, TRZAX ([5]; 63 g a.i./ha): 40%
growth controlling degree, GLXMA ([6]; 63 g a.i./ha): 50%
growth controlling degrees (%) ECHOR [7]: 100%
growth controlling degrees (%) SCPJO [8]: 40%
growth controlling degrees (%) SAGPY [9]: 40%
growth controlling degrees (%) ORYSA [10]: 10%

COc1c(Cl)cc(F)c(-c2nn(C)c(OC(F)F)c2Cl)c1N(C(=O)C=C(C)C)C(=O)C=C(C)C [Compound 1-11]
Pre-emergence Herbicidal Activity ABUTH (growth controlling degree) [1]: 100%
Pre-emergence Herbicidal Activity ZEAMX (growth controlling degree) [2]: 30%
growth controlling degree, SIDSP ([3]; 63 g a.i./ha): 100%
growth controlling degree, ORYSA ([4]; 63 g a.i./ha): 40%
growth controlling degree, TRZAX ([5]; 63 g a.i./ha): 20%
growth controlling degree, GLXMA ([6]; 63 g a.i./ha): 50%
growth controlling degrees (%) ECHOR [7]: 100%
growth controlling degrees (%) SCPJO [8]: 40%
growth controlling degrees (%) SAGPY [9]: 40%
growth controlling degrees (%) ORYSA [10]: 35%

COc1c(Cl)cc(F)c(-c2nn(C)c(OC(F)F)c2Cl)c1N(C=O)CC(=O)c1ccccc1 [Compound 1-12]
Pre-emergence Herbicidal Activity ABUTH (growth controlling degree) [1]: 100%
Pre-emergence Herbicidal Activity ZEAMX (growth controlling degree) [2]: 10%
growth controlling degree, SIDSP ([3]; 63 g a.i./ha): 100%
growth controlling degree, ORYSA ([4]; 63 g a.i./ha): 40%
growth controlling degree, TRZAX ([5]; 63 g a.i./ha): 20%
growth controlling degree, GLXMA ([6]; 63 g a.i./ha): 40%
growth controlling degrees (%) ECHOR [7]: 95%
growth controlling degrees (%) SCPJO [8]: 50%
growth controlling degrees (%) SAGPY [9]: 30%
growth controlling degrees (%) ORYSA [10]: 35%

COc1c(Cl)cc(F)c(-c2nn(C)c(OC(F)F)c2Cl)c1N(C=O)CC(=O)c1ccc(Cl)cc1 [Compound 1-13]
Pre-emergence Herbicidal Activity ABUTH (growth controlling degree) [1]: 100%
Pre-emergence Herbicidal Activity ZEAMX (growth controlling degree) [2]: 40%
growth controlling degree, SIDSP ([3]; 63 g a.i./ha): 100%
growth controlling degree, ORYSA ([4]; 63 g a.i./ha): 70%
growth controlling degree, TRZAX ([5]; 63 g a.i./ha): 30%
growth controlling degree, GLXMA ([6]; 63 g a.i./ha): 50%
growth controlling degrees (%) ECHOR [7]: 95%
growth controlling degrees (%) SCPJO [8]: 40%
growth controlling degrees (%) SAGPY [9]: 0%
growth controlling degrees (%) ORYSA [10]: 10%

COc1c(Cl)cc(F)c(-c2nn(C)c(OC(F)F)c2Cl)c1N(C=O)CC(C)=O [Compound 1-14]
Pre-emergence Herbicidal Activity ABUTH (growth controlling degree) [1]: 100%
Pre-emergence Herbicidal Activity ZEAMX (growth controlling degree) [2]: 40%
growth controlling degree, SIDSP ([3]; 63 g a.i./ha): 100%
growth controlling degree, ORYSA ([4]; 63 g a.i./ha): 40%
growth controlling degree, TRZAX ([5]; 63 g a.i./ha): 40%
growth controlling degree, GLXMA ([6]; 63 g a.i./ha): 60%
growth controlling degrees (%) ECHOR [7]: 100%
growth controlling degrees (%) SCPJO [8]: 90%
growth controlling degrees (%) SAGPY [9]: 98%
growth controlling degrees (%) ORYSA [10]: 50%

CNc1c(OC)c(Cl)cc(F)c1-c1nn(C)c(OC(F)F)c1Cl [Compound 1-58]
Pre-emergence Herbicidal Activity ABUTH (growth controlling degree) [1]: 95%
Pre-emergence Herbicidal Activity ZEAMX (growth controlling degree) [2]: 0%
growth controlling degree, SIDSP ([3]; 63 g a.i./ha): 100%
growth controlling degree, ORYSA ([4]; 63 g a.i./ha): 70%
growth controlling degree, TRZAX ([5]; 63 g a.i./ha): 60%
growth controlling degree, GLXMA ([6]; 63 g a.i./ha): 95%
growth controlling degrees (%) ECHOR [7]: 100%
growth controlling degrees (%) SCPJO [8]: 100%
growth controlling degrees (%) SAGPY [9]: 100%
growth controlling degrees (%) ORYSA [10]: 70%

COc1c(Cl)cc(F)c(-c2nn(C)c(OC(F)F)c2Cl)c1NC(C)C [Compound 1-59]
Pre-emergence Herbicidal Activity ABUTH (growth controlling degree) [1]: 95%
Pre-emergence Herbicidal Activity ZEAMX (growth controlling degree) [2]: 10%
growth controlling degree, SIDSP ([3]; 63 g a.i./ha): 100%
growth controlling degree, ORYSA ([4]; 63 g a.i./ha): 40%
growth controlling degree, TRZAX ([5]; 63 g a.i./ha): 50%
growth controlling degree, GLXMA ([6]; 63 g a.i./ha): 95%
growth controlling degrees (%) ECHOR [7]: 100%
growth controlling degrees (%) SCPJO [8]: 80%
growth controlling degrees (%) SAGPY [9]: 60%
growth controlling degrees (%) ORYSA [10]: 40%

COc1c(Cl)cc(F)c(-c2nn(C)c(OC(F)F)c2Cl)c1NC1CCCC1 [Compound 1-60]
Pre-emergence Herbicidal Activity ABUTH (growth controlling degree) [1]: 30%
Pre-emergence Herbicidal Activity ZEAMX (growth controlling degree) [2]: 0%
growth controlling degree, SIDSP ([3]; 63 g a.i./ha): 100%
growth controlling degree, ORYSA ([4]; 63 g a.i./ha): 40%
growth controlling degree, TRZAX ([5]; 63 g a.i./ha): 40%
growth controlling degree, GLXMA ([6]; 63 g a.i./ha): 70%
growth controlling degrees (%) ECHOR [7]: 100%
growth controlling degrees (%) SCPJO [8]: 60%
growth controlling degrees (%) SAGPY [9]: 60%
growth controlling degrees (%) ORYSA [10]: 30%

Cn1nc(-c2c(F)cc(Cl)c(OC(F)F)c2N)c(Cl)c1OC(F)F [Compound 1-81, 3-chloro-6-[4-chloro-5-(difluoromethoxy)-1-methyl-1H-pyrazol-3-yl]-2-(difluoromethoxy)-5-fluorobenzenamine]
Pre-emergence Herbicidal Activity ABUTH (growth controlling degree) [1]: 100%
Pre-emergence Herbicidal Activity ZEAMX (growth controlling degree) [2]: 10%
growth controlling degree, SIDSP ([3]; 125 g a.i./ha): 100%
growth controlling degree, ORYSA ([4]; 125 g a.i./ha): 70%
growth controlling degree, TRZAX ([5]; 125 g a.i./ha): 100%
growth controlling degree, GLXMA ([6]; 125 g a.i./ha): 80%
growth controlling degrees (%) ECHOR [7]: 100%
growth controlling degrees (%) SCPJO [8]: 100%
growth controlling degrees (%) SAGPY [9]: 95%
growth controlling degrees (%) ORYSA [10]: 35%
